PubChem BioAssay (NCI)
Where “and” joins values, the source holds several entries; their conditions need not be identical. Identical values can stand only once.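 Briefly, cells in 96-well plates were exposed to five compound concentrations for 48 h, and endpoints were estimated by linear interpolation. GI50: concentration for 50% inhibition of growth. TGI: total growth inhibition.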

Assays:
Test in all cases: DTP human tumour cell line panel, 48 h
[1] = test system: MDA-MB-468 breast
[2] = test system: 786-0 renal
[3] = test system: A498 renal
[4] = test system: A549 NSCLC
[5] = test system: BT-549 breast
[6] = test system: CAKI-1 renal
[7] = test system: CCRF-CEM leukemia
[8] = test system: COLO 205 colon
[9] = test system: HCC-2998 colon
[10] = test system: HCT-116 colon
[11] = test system: HCT-15 colon
[12] = test system: HL-60(TB) leukemia
[13] = test system: HOP-62 NSCLC
[14] = test system: HS 578T breast
[15] = test system: HT29 colon
[16] = test system: IGROV1 ovarian
[17] = test system: K-562 leukemia
[18] = test system: KM12 colon
[19] = test system: LOX IMVI melanoma
[20] = test system: M14 melanoma
[21] = test system: MCF7 breast
[22] = test system: MDA-MB-435
[23] = test system: MOLT-4 leukemia
[24] = test system: NCI-H226 lung
[25] = test system: NCI-H23 lung
[26] = test system: NCI-H460 lung
[27] = test system: NCI-H522 lung
[28] = test system: OVCAR-3 ovarian
[29] = test system: OVCAR-4 ovarian
[30] = test system: OVCAR-5 ovarian
[31] = test system: OVCAR-8 ovarian
[32] = test system: PC-3 prostate
[33] = test system: RPMI-8226 leukemia
[34] = test system: RXF 393 renal
[35] = test system: SF-268 CNS
[36] = test system: SF-295 CNS
[37] = test system: SF-539 CNS
[38] = test system: SK-MEL-2 melanoma
[39] = test system: SK-MEL-5 melanoma
[40] = test system: SK-OV-3 ovarian
[41] = test system: SN12C renal
[42] = test system: SNB-19 CNS
[43] = test system: SNB-75 CNS
[44] = test system: SR leukemia
[45] = test system: SW-620 colon
[46] = test system: TK-10 renal
[47] = test system: U251 CNS
[48] = test system: UACC-257 melanoma
[49] = test system: UACC-62 melanoma
[50] = test system: UO-31 renal

## CN[C@@H](C)C(=O)N[C@H](C(=O)N1CCC[C@H]1C(=O)Nc1snnc1-c1ccccc1)C1CCCCC1
[1]
  GI50: 16 µM
  TGI: 59.4 µM

## CC(C)(C)OC(=O)N1CCN(CCn2cc(C(F)(F)F)c3c(Cl)ncnc32)CC1
[1]
  GI50: 1.92 µM
  TGI: 3.77 µM

## c1ccc2[nH]c(-c3ccc(-c4nccc5c4[nH]c4ccccc45)cc3)nc2c1
[1]
  GI50: 2.52 µM
  TGI: 6.62 µM

## COC(=O)c1nc(-c2ccccc2)oc1S(=O)(=O)Cc1ccccc1
[1]
  GI50: 1.85 µM
  TGI: 4.02 µM

## COc1cnc2c(c1)C(=O)c1c-2n(CCCn2ccnc2)c(=O)c2cc(F)ccc12
[1]
  GI50: 0.0197 µM
  TGI: 0.154 µM

## CCN(CC)c1ccc(/C=N/NC(=O)c2ccc(NS(C)(=O)=O)cc2)c(O)c1
[1]
  GI50: 0.331 µM
  TGI: 2.93 µM

## CC(C)(C)c1ccc(Oc2nccc(-c3c(-c4ccc(F)cc4)ncn3C3CCNCC3)n2)cc1
[1]
  GI50: 2.58 µM
  TGI: 5.97 µM

## C=C(C)C(=O)Nc1ccc(NC(C)C)cc1
[1]
  GI50: > 100 µM
  TGI: > 100 µM

## O=C(CCCCCCCCC(=O)N/N=C\c1ccccc1O)N/N=C\c1ccccc1O
[1]
  GI50: 1.62 µM
  TGI: 5.23 µM

## C[C@H]1[C@H](C)CC[C@]2(CO)CC[C@]3(C)C(=CC[C@@H]4[C@@]5(C)CCCNC(C)(C)[C@@H]5CC[C@]43C)[C@H]12
[1]
  GI50: 1.7 µM
  TGI: 3.44 µM

## C=C1CCC2C3(C)COC(c4ccc(N(C)C)cc4)OC3CCC2(C)C1C/C=C1/C(=O)OCC1O (configuration not stated)
[1]
  GI50: 1.44 µM
  TGI: 3.09 µM

## C#C[C@]1(O)CC[C@H]2[C@@H]3CC=C4c5sc(Nc6ccncc6)nc5CC[C@]4(C)[C@H]3CC[C@@]21C
[1]
  GI50: 0.477 µM
  TGI: 2.27 µM

## Nc1c(C(=O)c2cccc(-c3ccncc3)c2)cnn1-c1ccc(F)cc1F
[1]
  GI50: 2.18 µM
  TGI: 17.9 µM

## COc1cc(CSc2nc3ccc(C)cc3c(=O)n2-c2ccccc2)cc(OC)c1OC
[1]
  GI50: 0.266 µM
  TGI: 2.11 µM

## C=C1C(=O)O[C@H]2[C@H]1CC/C(COC(=O)NCc1ccc(Cn3c(=O)sn(CCCl)c3=O)cc1)=C\CC[C@@]1(C)O[C@@H]21
[1]
  GI50: 1.78 µM
  TGI: 4.52 µM

## COc1ccc(C(=O)OC2C(OC3C(O)COC(O[C@H]4C[C@H]5[C@@H]6CC=C7C[C@@H](O)CC[C@]7(C)[C@H]6CC[C@]5(C)[C@H]4[C@H](C)C(=O)CCC(C)C)C3OC(N)=O)OCC(O)C2O)cc1 (some centres not stated)
[1]
  GI50: 0.0781 µM
  TGI: 1.6 µM

## O=C1NC(=NC23CC4CC(CC(C4)C2)C3)N/C1=C\c1ccc2ncsc2c1
[2]
  GI50: 3.05 µM
  TGI: > 100 µM
[3]
  GI50: 2.7 µM
  TGI: 7.79 µM
[4]
  GI50: 1.19 µM
  TGI: > 100 µM
[5]
  GI50: 1.63 µM
  TGI: 7 µM
[6]
  GI50: 1.33 µM
  TGI: > 100 µM
[7]
  GI50: 1.12 µM
  TGI: 5.96 µM
[8]
  GI50: 1.8 µM
  TGI: 6.77 µM
[9]
  GI50: 3.32 µM
  TGI: > 100 µM
[10]
  GI50: 0.323 µM
  TGI: > 100 µM
[11]
  GI50: 0.663 µM
  TGI: > 100 µM
[12]
  GI50: 1.63 µM
  TGI: 5.25 µM
[13]
  GI50: 3.35 µM
  TGI: > 100 µM
[14]
  GI50: 2.73 µM
  TGI: 8.13 µM
[15]
  GI50: 3.09 µM
  TGI: > 100 µM
[16]
  GI50: 2.58 µM
  TGI: > 100 µM
[17]
  GI50: 0.762 µM
  TGI: > 100 µM
[18]
  GI50: 1.8 µM
  TGI: > 100 µM
[19]
  GI50: 0.928 µM
  TGI: > 100 µM
[20]
  GI50: 2.42 µM
  TGI: > 100 µM
[21]
  GI50: 1.37 µM
  TGI: > 100 µM
[22]
  GI50: 3.11 µM
  TGI: > 100 µM
[1]
  GI50: 1.24 µM
  TGI: 3.67 µM
[23]
  GI50: 1.65 µM
  TGI: > 100 µM
[24]
  GI50: 1.43 µM
  TGI: > 100 µM
[25]
  GI50: 1.58 µM
  TGI: 7.36 µM
[26]
  GI50: 0.538 µM
  TGI: > 100 µM
[27]
  GI50: 0.168 µM
  TGI: 4.79 µM
[28]
  GI50: 1.74 µM
  TGI: 6.73 µM
[29]
  GI50: 3.2 µM
  TGI: > 100 µM
[30]
  GI50: 2.45 µM
  TGI: > 100 µM
[31]
  GI50: 1.68 µM
  TGI: > 100 µM
[32]
  GI50: 3.29 µM
  TGI: > 100 µM
[33]
  GI50: 1.2 µM
  TGI: 5.14 µM
[34]
  GI50: 2.01 µM
  TGI: 4.21 µM
[35]
  GI50: 2.23 µM
  TGI: 6.58 µM
[36]
  GI50: 3.4 µM
  TGI: > 100 µM
[37]
  GI50: 0.432 µM
  TGI: 3.06 µM
[38]
  GI50: 0.933 µM
  TGI: 3.13 µM
[39]
  GI50: 0.899 µM
  TGI: 5.56 µM
[40]
  GI50: 5.47 µM
  TGI: > 100 µM
[41]
  GI50: 0.842 µM
  TGI: > 100 µM
[42]
  GI50: 3.58 µM
  TGI: > 100 µM
[43]
  GI50: 1.62 µM
  TGI: 4.29 µM
[44]
  GI50: 0.17 µM
  TGI: 1.24 µM
[45]
  GI50: 1.81 µM
  TGI: > 100 µM
[46]
  GI50: 2.87 µM
  TGI: > 100 µM
[47]
  GI50: 1.79 µM
  TGI: > 100 µM
[48]
  GI50: 4.11 µM
  TGI: > 100 µM
[49]
  GI50: 3.11 µM
  TGI: > 100 µM
[50]
  GI50: 2.96 µM
  TGI: 8.04 µM

## COc1cc(NC(C)CCCNC2CN3CCC2CC3)c2ncccc2c1 (configuration not stated)
[1]
  GI50: 1.71 µM
  TGI: 3.84 µM

## O=C(CCCCCCC(=O)Nc1ccccc1)NO
[1]
  GI50: 0.361 µM and 0.899 µM
  TGI: 12.3 µM and 10.8 µM

## FC(F)(F)c1ccc(Nc2nc(-c3c(C(F)(F)F)nc4ccccn34)cs2)cc1
[1]
  GI50: 0.16 µM
  TGI: 1.04 µM

## CCN(CC)CCCCNc1c2ccccc2[n+](C)c2c1[nH]c1ccccc12
[1]
  GI50: 0.222 µM
  TGI: 4.85 µM

## Cc1c(C(N)=O)sc2c1C(=O)N(Cc1ccccc1)C1=NN=C(c3ccc(Cl)cc3)CN12
[1]
  GI50: 1.93 µM
  TGI: 7.54 µM

## CCCCCCCCCCCCCCCCCCOc1ccccc1CC(=O)OCC[N+]1(C)CCCCC1
[1]
  GI50: 1.53 µM
  TGI: 3.83 µM

## COc1ccc(-c2nc(-c3nc4ccc(OC)cc4[nH]3)c3ccccn23)cc1
[1]
  GI50: 4.08 µM
  TGI: 84.5 µM

## C=C1C(=O)O[C@H]2[C@H]1CC/C(COC(=O)NCc1cn(C)c3ccccc13)=C\CC[C@@]1(C)O[C@@H]21
[1]
  GI50: 0.836 µM
  TGI: 2.95 µM

## COc1ccc(C(=O)c2cc(OC)c(OC)c(OC)c2)cc1OC(=O)CCl
[1]
  GI50: 0.787 µM

## COc1ccc(-c2c[nH]c(C(=O)O)c2-c2cc(OC)c(OC)c(OC)c2)cc1
[1]
  GI50: 2.24 µM
  TGI: 6.78 µM

## CC(C)[C@H](N)C(=O)N1CCC[C@H]1B(O)O
[1]
  GI50: > 100 µM
  TGI: > 100 µM

## Cc1cc(O)c(C(C)C)cc1S(=O)(=O)O (tested in a mixture with another compound)
[1]
  GI50: 0.273 µM
  TGI: 1.18 µM

## CC(C)(C)n1cc(-c2ccnc(NCCCNS(=O)(=O)c3ccc(C(F)(F)F)cc3)c2)c(-c2cccc(O)c2)n1
[1]
  GI50: 1.88 µM
  TGI: 4.06 µM

## C#Cc1c(F)ccc2cc(O)cc(-c3ncc4c(N5CC6CCC(C5)N6)nc(OC[C@@]56CCCN5C[C@H](F)C6)nc4c3F)c12
[1]
  GI50: 4.78 µM
  TGI: 11.9 µM

## COc1ccc(-c2cc(=O)[nH]c3c(OC)c4ccccc4c(OC)c23)cc1
[1]
  GI50: 0.557 µM

## COc1ccc2[nH]c(O)c(N=NC(=O)c3oc4ccccc4c3C)c2c1
[1]
  GI50: 2.6 µM
  TGI: 6.53 µM

## CN(C)CCN1C(=O)c2ccccc2N(C)c2ccccc21
[1]
  GI50: > 100 µM
  TGI: > 100 µM

## CC/C=C1/C(=O)C=C[C@@H]1C/C=C\CCCC(=O)OC
[1]
  GI50: 2.31 µM
  TGI: 6.04 µM

## O=C(NNc1nc2cc(F)ccc2n2c(CO)ccc12)c1cnccn1
[1]
  GI50: 0.448 µM
  TGI: 3.34 µM

## CCN(CC)CCCC(C)Nc1ccnc2cc(Oc3ccccc3)ccc12 (configuration not stated)
[1]
  GI50: 3.06 µM and 3.95 µM
  TGI: 13.3 µM and 15.1 µM

## COc1c(C)c2c(c(O)c1C/C=C(\C)CCC(=O)O)C(=O)OC2
[1]
  GI50: 0.515 µM
  TGI: > 100 µM
